Results: patent publication US20250195474A1, “Piezo Inhibition for Wound Healing” (priority 2022, published 2025)
No end group written: not given here.

Assays:
wounds = experiment: Visium spatial transcriptomic analysis of wounds; assay type: in vivo, mouse
Experimental: (§1) Wound specimens were rapidly harvested and flash frozen in OCT. Using the Visium Tissue Optimization Slide and Reagent Kit, permeabilization time was optimized at a thickness at 10 μm per section and 37 minutes for mouse tissue. Following cryo-sectioning at −20 degrees onto gene expression slides the expression slide and reagent kit was used to produce sequencing libraries. The libraries were then sequences using NextSeq (Illumina). Following demultiplication the raw FASTQ files and histology images were processed by sample with the Space Ranger software for genome alignment. The raw spaceranger output files for each sample was then read into a Seurat class object in R using Seurat's Load10× function. Data was normalized using the SCT transform with default parameters. To ascertain the integration of our scRNAseq and Visium spatial analysis we employed the FindTransferAnchors( ) function from Seurat, which allowed the alignment of data using the two datasets. This cross-platform linkage is performed serially in an unconstrained and constrained fashion.

existing scars = experiment: Visium spatial transcriptomic analysis of treated existing scars; assay type: in vivo, mouse
Experimental: as §1
To further analyze the spatial gene expression following scar rescue, the Visium platform was applied to scars treated with P1i or PBS at POD 30, 75, and 120 (FIG. 9A). Similar to analysis of acute wound healing, the epidermal, dermal, and hypodermal layers were easily elucidated from the spatial transcriptomic analysis in scars at POD 60 (FIG. 9B). Furthermore, the expected cell types including fibroblasts, immune, epithelial, and adipocytes were identified by spatial expression of representative genes (FIG. 36A).

[1] = system: human xenograft fibroblasts; experiment: scRNA-seq of human xenograft wounds at POD 14; assay type: in vivo
Experimental: To assess if P1i acts on similar fibroblast clusters to cause regeneration, scRNA-seq analysis was performed on xenografts harvested at POD 14 post injury using a hybrid human-mouse xeno-transcriptome (FIG. 12A). Mouse cells were removed informatically and subsequent analysis focused exclusively on human cells (FIG. 41A). Partitional analysis identified 8 transcriptionally distinct clusters (FIG. 12B-C), corresponding to fibroblast and keratinocyte populations (FIG. 41A). Each cluster was present in all three treatment conditions but Cluster 3 was elevated in P1i treated wounds (FIG. 12D, FIG. 41B). […] This cluster was also enriched for pathways such as “skin morphogenesis”, as well as “neural crest differentiation” (FIG. 12G). By contrast, Cluster 0 was enriched for pathways related to adipocyte differentiation (FIG. 41C) and elevated expression of genes related to adipocyte-fibroblast transition (FIG. 41C) including expression of JUN a transcription factor associated with fibrosis (FIG. 41D).

human fibroblasts = experiment: Human fibroblasts in 3D collagen gels with stretching; assay type: cell-based
From the text: To further confirm that human cluster 3 represented a pro-regenerative ADF population we utilized our in vitro collagen gel system. We first, FACS sorted human fibroblasts based on expression of cluster 3 markers including ROBO2, CD29, and SFRP2 and seeded them into 3D collagen gels (FIG. 42B). […] In contrast, stretching with P1 inhibition kept the fibroblasts in a more adipocyte-like phenotype, with high expression of PPARg and low expression of Collagen Type I, similar to fibroblasts in an unstretched state (FIG. 42B).
To determine if P1i may activate […] Wnt pathways to maintain cluster 3 in an adipocyte-like phenotype, we applied Wnt5a recombinant protein to the in vitro collagen gel system (FIG. 42C). […] In summary, P1i treatment may revert fibroblasts towards the mechanically naïve fibroblast pro-regenerative fibroblast population through the activation of canonical Wnt pathways and thereby preventing the transition to pro-scarring phenotypes defined by CJUN and VCAM1 expression.

TRPC1 = TRPC1 (Homo sapiens, UniProt P48995); conditions: cited from earlier work
Sequence of TRPC1 (P48995 whole entry, species assumed): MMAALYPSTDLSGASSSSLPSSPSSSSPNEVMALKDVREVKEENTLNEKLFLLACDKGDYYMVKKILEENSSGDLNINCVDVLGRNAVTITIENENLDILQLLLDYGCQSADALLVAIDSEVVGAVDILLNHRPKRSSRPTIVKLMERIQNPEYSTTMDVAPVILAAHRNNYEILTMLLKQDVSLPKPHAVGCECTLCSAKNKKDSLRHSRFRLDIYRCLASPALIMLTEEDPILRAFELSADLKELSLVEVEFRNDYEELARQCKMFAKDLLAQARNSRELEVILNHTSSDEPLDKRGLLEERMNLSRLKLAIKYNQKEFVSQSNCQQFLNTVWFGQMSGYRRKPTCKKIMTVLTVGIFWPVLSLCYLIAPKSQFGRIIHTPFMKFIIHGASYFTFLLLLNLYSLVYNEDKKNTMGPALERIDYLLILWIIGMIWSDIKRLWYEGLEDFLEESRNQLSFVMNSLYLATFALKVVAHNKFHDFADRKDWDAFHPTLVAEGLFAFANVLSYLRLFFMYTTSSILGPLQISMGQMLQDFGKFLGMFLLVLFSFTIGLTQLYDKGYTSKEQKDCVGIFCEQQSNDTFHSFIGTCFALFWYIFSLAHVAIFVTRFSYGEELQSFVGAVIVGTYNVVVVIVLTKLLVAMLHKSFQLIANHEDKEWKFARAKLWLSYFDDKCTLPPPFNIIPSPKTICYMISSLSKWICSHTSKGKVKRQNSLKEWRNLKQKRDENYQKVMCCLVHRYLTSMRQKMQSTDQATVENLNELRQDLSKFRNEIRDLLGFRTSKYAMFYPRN

TRPC6 = biological target: T1, TRPC6 (Homo sapiens, UniProt Q9Y210); conditions: cited from earlier work
T1 sequence (Q9Y210 1-931): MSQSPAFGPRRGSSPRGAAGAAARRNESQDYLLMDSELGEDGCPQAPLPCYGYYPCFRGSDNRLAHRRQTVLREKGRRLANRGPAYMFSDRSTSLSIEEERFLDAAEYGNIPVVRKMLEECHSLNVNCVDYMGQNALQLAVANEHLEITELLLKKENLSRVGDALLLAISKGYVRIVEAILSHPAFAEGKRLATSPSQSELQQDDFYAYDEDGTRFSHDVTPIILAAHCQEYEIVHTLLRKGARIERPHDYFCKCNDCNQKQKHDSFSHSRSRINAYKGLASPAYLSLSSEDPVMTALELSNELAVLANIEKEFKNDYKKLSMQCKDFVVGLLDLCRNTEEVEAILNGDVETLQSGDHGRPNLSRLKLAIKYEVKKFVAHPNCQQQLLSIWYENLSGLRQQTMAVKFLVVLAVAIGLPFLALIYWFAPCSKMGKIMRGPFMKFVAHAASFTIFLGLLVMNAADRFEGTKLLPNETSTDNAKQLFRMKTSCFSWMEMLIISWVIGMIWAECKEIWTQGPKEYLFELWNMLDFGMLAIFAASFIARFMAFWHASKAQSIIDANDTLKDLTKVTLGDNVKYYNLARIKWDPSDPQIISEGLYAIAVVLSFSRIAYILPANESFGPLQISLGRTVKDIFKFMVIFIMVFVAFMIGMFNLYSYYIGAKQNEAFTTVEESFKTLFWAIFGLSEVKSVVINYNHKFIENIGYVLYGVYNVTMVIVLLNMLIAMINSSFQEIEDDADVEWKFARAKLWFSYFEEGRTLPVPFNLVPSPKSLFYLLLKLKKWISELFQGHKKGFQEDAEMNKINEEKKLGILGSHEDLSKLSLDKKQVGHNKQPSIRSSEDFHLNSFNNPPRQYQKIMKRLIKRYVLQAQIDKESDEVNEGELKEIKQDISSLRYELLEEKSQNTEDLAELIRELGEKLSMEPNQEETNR

wound cells = experiment: scRNA-seq and CellChat analysis of POD 14 wounds
mouse adipocytes = experiment: Mouse adipocyte-populated collagen I hydrogels with or without mechanical stretch; conditions: 10% equibiaxial strain, 7 days; GsMTx4 500 nM, D-GsMTx4 500 nM, PF573228 10 uM, Verteporfin 300 nM

GsMTx4 (GCLEFWWKCNPNDDKCCRPKLKCSKLFKLCNFSF; ends and bridges not checked; cysteine pairing not given here; UniProt Q7YT39 47-80, looked up) [P1i]
differential interaction maps (Visium) (wounds; POD 14): strong interactions between adipocytes and fibroblasts
fibroblast scRNA-seq cluster 0 (mechanically sensitive) spatial enrichment (wounds; POD 14): highly enriched in PBS-treated POD 14 wounds compared to P1i or P2i treated wounds
fibroblast scRNA-seq cluster 5 (mechanically naive) spatial presence (wounds; POD 14): observed
spatial expression of Piezo1, Piezo2, Ptk2 and Yap1 (wounds; POD 14): appeared mostly at the basal region
spatially variable features (gene expression) (wounds; POD 14): high expression of markers associated with the epidermis including Krt1 and Krt14
adipocyte and epithelial cells in the spatial environment (wounds; POD 14, vs PBS): enriched
spatially identified adipocytes (existing scars; POD 60, 105 and 150, vs PBS): greater in number
differential interaction maps (Visium) (existing scars; existing scars): larger number of interactions between adipocytes and epithelial cells
differentially expressed genes during scar rescue (existing scars; existing scars): high expression of genes associated with the epidermis
spatial expression of Piezo1, Piezo2, Yap1 and Ptk2 (existing scars; existing scars, all timepoints): observed mostly at the basal aspects of the wounds
expression of TWIST2, WNT5A, CALU and SFRP2 ([1]; POD 14): highly expressed
representation of human cluster 3 ([1]; POD 14): elevated
CellChat cluster 0 activity with other clusters ([1]; POD 14, vs control wounds): downregulation
phenotype of human fibroblasts (PPARg, Collagen Type 1) (human fibroblasts): a more adipocyte like phenotype with high expression of PPARg and low expression of Collagen Type 1
block of TRPC1 (TRPC1): blocks
block of TRPC6 (TRPC6): blocks
relative adipocytes and fibroblasts among sequenced wound cells (wound cells; POD 14): relatively more adipocytes and fewer fibroblasts
CellChat interactions between cluster 5 fibroblasts and adipocytes (wound cells; POD 14, vs control wounds): enhanced interactions between cluster 5 fibroblasts and adipocytes
CellChat signaling of adipocyte pathways (Leptin, Chemerin, PD-L1) (wound cells; POD 14, vs control wounds): enhanced signaling of known adipocyte pathways
CellChat signaling of cluster 5 fibroblasts with other cell types (wound cells; POD 14, vs control wounds): increase in signaling between cluster 5 fibroblasts and most other cell types
stretch-induced phenotypic switch (losing adiponectin, expressing Col1) (mouse adipocytes): abrogated
